Data published in ChEMBL document CHEMBL3865812, “Selective killing of cancer cells with triterpenoic acid amides - The substantial role of an aromatic moiety alignment” (Eur J Med Chem, 2016).
Active and inactive are the calls of the source. The rule behind the calls is not given here.

Legend:
[1] = Cytotoxicity against human 518A2 cells measured after 96 hrs by SRB assay; type: functional, cell-based; settings: 518A2, 96 h
[2] = Cytotoxicity against human A549 cells measured after 96 hrs by SRB assay; type: functional, cell-based; settings: A549, 96 h
[3] = Cytotoxicity against human MCF7 cells measured after 96 hrs by SRB assay; type: functional, cell-based; settings: MCF7, 96 h
[4] = Cytotoxicity against human 8505C cells measured after 96 hrs by SRB assay; type: functional, cell-based
[5] = Cytotoxicity against human HT-29 cells measured after 96 hrs by SRB assay; type: functional, cell-based; settings: HT-29, 96 h
[6] = Cytotoxicity against human A2780 cells measured after 96 hrs by SRB assay; type: functional, cell-based; settings: A2780, 96 h
[7] = Cytotoxicity against mouse NIH/3T3 cells measured after 96 hrs by SRB assay; type: toxicity, NIH3T3
[8] = Solubility of compound in water; type: physicochemical; settings: buffer
[9] = Cell cycle arrest in human A2780 cells assessed as sub-G1 peak appearance at 6 uM measured after 48 hrs by propidium iodide staining based FACS analysis; type: functional
[10] = test system: A2780; assay: Induction of apoptosis in human A2780 cells assessed as increase in apoptotic cells at 6 uM measured after 2 days by Annexin V/FITC/propidium iodide staining-based FACS analysis; type: functional, cell-based
[11] = Cell cycle arrest in human A2780 cells assessed as decrease in accumulation of cells at S-phase at 6 uM measured after 48 hrs by propidium iodide staining based FACS analysis; type: functional
[12] = Cell cycle arrest in human A2780 cells assessed as decrease in G1 peak at 6 uM measured after 24 hrs by propidium iodide staining based FACS analysis; type: functional
[13] = Cell cycle arrest in human A2780 cells assessed as accumulation at S-phase at 6 uM measured after 24 hrs by propidium iodide staining based FACS analysis; type: functional
[14] = Cell cycle arrest in human A2780 cells assessed as loss of G2 peak at 6 uM measured after 24 hrs by propidium iodide staining based FACS analysis; type: functional
[15] = test system: A2780; assay: Induction of apoptosis in human A2780 cells assessed as secondary necrotic cells at 6 uM measured after 2 days by Annexin V/FITC/propidium iodide staining-based FACS analysis; type: functional, cell-based

solubility [8]	SMILES	EC50 [1]	EC50 [2]	EC50 [3]	EC50 [4]	EC50 [5]	EC50 [6]	EC50 at 96 h [7]	Activity [9]	Activity [10]	Activity [11]	Activity [12]	Activity [13]	Activity [14]	Activity [15]
	CC(=O)O[C@H]1C[C@]2(C)[C@H]3CC=C4[C@@H]5[C@@H](C)[C@H](C)CC[C@]5(C(=O)Nc5cccnc5)CC[C@@]4(C)[C@]3(C)CC[C@H]2C(C)(C)[C@H]1OC(C)=O	2 µM	3.5 µM	3.5 µM	2.7 µM	3.2 µM	2 µM	4.2 µM							
	CC(=O)O[C@H]1C[C@]2(C)[C@H]3CC=C4[C@@H]5CC(C)(C)CC[C@]5(C(=O)Nc5cccnc5)CC[C@@]4(C)[C@]3(C)CC[C@H]2C(C)(C)[C@H]1OC(C)=O	1.7 µM	2.8 µM	2 µM	2.3 µM	2.2 µM	0.9 µM	2.4 µM							
	CC(=O)O[C@H]1C[C@]2(C)[C@H]3CC=C4[C@@H]5[C@@H](C)[C@H](C)CC[C@]5(C(=O)O)CC[C@@]4(C)[C@]3(C)CC[C@H]2C(C)(C)[C@H]1OC(C)=O	17.9 µM	15.6 µM	10.4 µM	15.6 µM	16.2 µM	17.9 µM	12.7 µM							
Insoluble	CC(=O)O[C@H]1C[C@]2(C)[C@H]3CC=C4[C@@H]5CC(C)(C)CC[C@]5(C(=O)Nc5cccc6cccnc56)CC[C@@]4(C)[C@]3(C)CC[C@H]2C(C)(C)[C@H]1OC(C)=O	6.2 µM	> 30 µM	24.6 µM	16.1 µM	> 30 µM	5.1 µM	> 30 µM							
Insoluble	CC(=O)O[C@H]1C[C@]2(C)[C@H]3CC=C4[C@@H]5[C@@H](C)[C@H](C)CC[C@]5(C(=O)Nc5ccc6ncccc6c5)CC[C@@]4(C)[C@]3(C)CC[C@H]2C(C)(C)[C@H]1OC(C)=O	4.2 µM	5.3 µM	6.5 µM	4.3 µM	9.2 µM	4.2 µM	0.9 µM							
Insoluble	CC(=O)O[C@H]1C[C@]2(C)[C@H]3CC=C4[C@@H]5[C@@H](C)[C@H](C)CC[C@]5(C(=O)Nc5ccnc6ccccc56)CC[C@@]4(C)[C@]3(C)CC[C@H]2C(C)(C)[C@H]1OC(C)=O	6.4 µM	8.2 µM	4 µM	6.6 µM	5.5 µM	3.5 µM	5.2 µM							
Insoluble	CC(=O)O[C@H]1C[C@]2(C)[C@H]3CC=C4[C@@H]5[C@@H](C)[C@H](C)CC[C@]5(C(=O)Nc5ccc6cccnc6c5)CC[C@@]4(C)[C@]3(C)CC[C@H]2C(C)(C)[C@H]1OC(C)=O	2.4 µM	3.1 µM	1.6 µM	2.5 µM	2 µM	1.8 µM	1.8 µM							
	CC(=O)O[C@H]1C[C@]2(C)[C@H]3CC=C4[C@@H]5CC(C)(C)CC[C@]5(C(=O)O)CC[C@@]4(C)[C@]3(C)CC[C@H]2C(C)(C)[C@H]1OC(C)=O	13.8 µM		16.1 µM		23.1 µM		> 30 µM							
	CC(=O)O[C@H]1C[C@]2(C)[C@H]3CC=C4[C@@H]5[C@@H](C)[C@H](C)CC[C@]5(C(=O)Nc5cccc6ncccc56)CC[C@@]4(C)[C@]3(C)CC[C@H]2C(C)(C)[C@H]1OC(C)=O	2 µM	3.7 µM	5.5 µM	3.2 µM	3.6 µM	2.7 µM	> 60 µM							
	CC(=O)O[C@H]1C[C@]2(C)[C@H]3CC=C4[C@@H]5CC(C)(C)CC[C@]5(C(=O)Nc5ccncc5)CC[C@@]4(C)[C@]3(C)CC[C@H]2C(C)(C)[C@H]1OC(C)=O	4.2 µM	4 µM	3.1 µM	4.1 µM	2.7 µM	1.6 µM	1.8 µM							
Insoluble	CC(=O)O[C@H]1C[C@]2(C)[C@H]3CC=C4[C@@H]5CC(C)(C)CC[C@]5(C(=O)Nc5cnc6ccccc6c5)CC[C@@]4(C)[C@]3(C)CC[C@H]2C(C)(C)[C@H]1OC(C)=O	2.9 µM	7.4 µM	9.3 µM	5 µM	6.3 µM	2.2 µM	0.9 µM	Active	Active	Active	Active	Active	Active	Active
	CC(=O)O[C@H]1C[C@]2(C)[C@H]3CC=C4[C@@H]5[C@@H](C)[C@H](C)CC[C@]5(C(=O)Nc5ccncc5)CC[C@@]4(C)[C@]3(C)CC[C@H]2C(C)(C)[C@H]1OC(C)=O	8.3 µM	10.1 µM	9 µM	8.5 µM	9.4 µM	8.3 µM	5.7 µM							
	C[C@H]1[C@H](C)CC[C@]2(C(=O)O)CC[C@]3(C)C(=CC[C@@H]4[C@@]5(C)C[C@H](O)[C@H](O)C(C)(C)[C@@H]5CC[C@]43C)[C@H]12	> 30 µM	> 30 µM	29.1 µM	> 30 µM	> 30 µM	24.9 µM	> 30 µM							
	CC(=O)O[C@H]1CC[C@]2(C)[C@H]3CC=C4[C@@H]5[C@@H](C)[C@H](C)CC[C@]5(C(=O)Nc5cccc6ncccc56)CC[C@@]4(C)[C@]3(C)CC[C@H]2C1(C)C	3.5 µM	5.1 µM	3.9 µM	3.5 µM	5.1 µM	4.4 µM	3.5 µM							
	CC1(C)CC[C@]2(C(=O)O)CC[C@]3(C)C(=CC[C@@H]4[C@@]5(C)C[C@H](O)[C@H](O)C(C)(C)[C@@H]5CC[C@]43C)[C@@H]2C1 [AUGUSTIC ACID]	25.7 µM		25.1 µM		> 30 µM		> 30 µM							
Insoluble	CC(=O)O[C@H]1C[C@]2(C)[C@H]3CC=C4[C@@H]5[C@@H](C)[C@H](C)CC[C@]5(C(=O)Nc5cnc6ccccc6c5)CC[C@@]4(C)[C@]3(C)CC[C@H]2C(C)(C)[C@H]1OC(C)=O	2.5 µM	3.4 µM	3.2 µM	3.1 µM	6.5 µM	2.8 µM	2.2 µM							
Insoluble	CC(=O)O[C@H]1C[C@]2(C)[C@H]3CC=C4[C@@H]5CC(C)(C)CC[C@]5(C(=O)Nc5ccc6ncccc6c5)CC[C@@]4(C)[C@]3(C)CC[C@H]2C(C)(C)[C@H]1OC(C)=O	2.9 µM	4.9 µM	5.8 µM	3.8 µM	4.4 µM	2 µM	0.6 µM	Active	Active	Active	Active	Active	Active	Active
	CC(=O)O[C@H]1C[C@]2(C)[C@H]3CC=C4[C@@H]5CC(C)(C)CC[C@]5(C(=O)Nc5cccc6ncccc56)CC[C@@]4(C)[C@]3(C)CC[C@H]2C(C)(C)[C@H]1OC(C)=O	1.2 µM	3 µM	2.5 µM	2.3 µM	2.4 µM	0.7 µM	8.6 µM	Active	Active	Active	Active	Active	Active	Active
Insoluble	CC(=O)O[C@H]1C[C@]2(C)[C@H]3CC=C4[C@@H]5CC(C)(C)CC[C@]5(C(=O)Nc5ccc6cccnc6c5)CC[C@@]4(C)[C@]3(C)CC[C@H]2C(C)(C)[C@H]1OC(C)=O	1.6 µM	2.6 µM	1.4 µM	1.6 µM	1.3 µM	1 µM	0.7 µM							
Insoluble	CC(=O)O[C@H]1C[C@]2(C)[C@H]3CC=C4[C@@H]5[C@@H](C)[C@H](C)CC[C@]5(C(=O)Nc5cccc6cccnc56)CC[C@@]4(C)[C@]3(C)CC[C@H]2C(C)(C)[C@H]1OC(C)=O	13.3 µM	> 30 µM	> 30 µM	> 30 µM	> 30 µM	6.7 µM	> 30 µM							
Insoluble	CC(=O)O[C@H]1C[C@]2(C)[C@H]3CC=C4[C@@H]5CC(C)(C)CC[C@]5(C(=O)Nc5ccnc6ccccc56)CC[C@@]4(C)[C@]3(C)CC[C@H]2C(C)(C)[C@H]1OC(C)=O	2.4 µM	4.2 µM	4.3 µM	3.4 µM	4.1 µM	2 µM	2.9 µM	Active	Active	Active	Active	Active	Active	Active
